Test results reported in patent US20240208950A1, “COMPOSITIONS AND METHODS FOR TREATMENT OF CERVICAL AND OVARIAN CANCER” (SOUTH DAKOTA BOARD OF REGENTS, priority 2021, published 2024).

Experiments:
Type in all cases: cell-based, human
[1] = test system: HPV16 E6 and E7 transcripts in SiHa cells; assay: qPCR of HPV E6 and HPV E7 transcripts, SiHa; conditions: 18 hours
CaSki cells [2] = assay: Apoptosis analysis by Annexin V staining, CaSki; conditions: 10 μM, 24 hours
Procedure: The apoptosis inducing effect of Br-ORM on cervical cells was analyzed by Annexin V-FLUOS staining kit (Roche Diagnostic Corp. Indianapolis, IN, USA). The procedure was followed as described in the vendor's protocol. Briefly, 60% confluent cervical cancer cells (CaSki and SiHa) were treated with Br-ORM (10, 15, and 20 μM) and kept in a CO2 incubator at 37° C. for 24 hours. Control group cells were treated with DMSO as the vehicle. Cells were washed with PBS (1×) and kept in Annexin-V solution for 20 minutes. Images were captured in bright and green field by fluorescent microscope.
It was observed that Br-ORM exerts potent growth inhibitory effects, so the effect of Br-ORM on apoptosis induction was further examined. Cervical cancer cells were treated with Br-ORM (10 μM) for 24 hours and the apoptosis inducing effect of Br-ORM was analyzed by Annexin V staining and Western blot analysis for cleavage in PARP protein.

CaSki cells [3] = assay: Colony formation assay, CaSki; conditions: CaSki, 2.5, 5 and 7.5 μM
Procedure: FIGS. 5A and 5B show representative colony images of CaSki cells (FIG. 5A) and SiHa cells (FIG. 5B) treated with various concentrations of ORM-Br ranging from […]. FIGS. 5C and 5D represent the quantification of colony formation in CaSki cells (FIG. 5C) and SiHa cells (FIG. 5D) treated with various concentrations of ORM-Br ranging from 0 to 7.5 μM.
To determine the effect of Br-ORM on clonogenic potential of CaSki and SiHa cells, a colony formation assay was performed. In brief, 500 cells were seeded per well in a 6-well plate and allowed to stand for the next three days. The cells were treated with Br-ORM with different concentrations (2.5, 5, and 7.5 μM) for seven days and then followed by normal growth media. […] Colonies were fixed in methanol, stained with haematoxylin, and counted using UVP 810 software.
(§1) FIG. 13. […] Cell viability was assessed by MTS assay. […] Bar graphs indicating quantification of colony formation in CaSki (i), and SiHa (ii) cells of cervical cancer with respect to vehicle control. […] Briefly, cervical cancer cells were treated with Br-ORM (10 μM) for 24 hours and the apoptosis inducing effect of Br-ORM was analyzed by Annexin V staining. […] The equal loading of protein in each lane was determined by probing the blots with β-actin antibody (FIG. 13F). […] Br-ORM arrests cell cycle in G1/S phase as determined by flow cytometry. […]

CaSki cells [4] = assay: Cell proliferation assay (MTS), CaSki; conditions: 1-20 μM, 24 hours
Procedure: The effect of Br-ORM on CaSki and SiHa cells proliferation was performed using the MTS assay. Briefly, cells were seeded at a density of 5×10^3 cells per well in 96 well plate and allowed to stand overnight at 37° C. and 5% CO2 incubator. Next day, cells were treated with different concentrations of Br-ORM (1, 5, 10 and 20 μM). DMSO was used as a vehicle for the treatment of control cells. Twenty four hours post-treatment, 20 μL of MTS reagent (5 mg/mL) was added in each well and further incubated the plate for 2 hours in a CO2 incubator. Absorbance was taken after 2 hours at […] (SpectraMax M2 spectrophotometer, Molecular Devices, Sunnyvale, CA, USA). The experiment was performed in triplicates. Results were represented as percent viability with respect to the control group. […]
as §1

With `COc1ccc2c(c1)OC(C)(C)C(c1ccc(Br)cc1)C2c1ccc(OCCN2CCCC2)cc1` (stereo not drawn) [ORM-Br] the “HPV16 E6 and E7 transcripts” value [1] was “significant downregulation”, the “apoptosis induction (Annexin V staining)” value (CaSki cells [2]) was “induced apoptosis” and the “colony formation (clonogenic potential)” value (CaSki cells [3]) was “suppresses the clonogenic potential”. The “colony formation (clonogenic potential)” value (CaSki cells [3]; listed as Br-ORM) was “significantly decreased the number of colonies”, the “cell viability / growth” value (CaSki cells [4]) was “inhibits the growth” and the “cell viability / growth” value (CaSki cells [4]; listed as Br-ORM) was “dose dependently inhibited the cell viability”.
